Results reported in US8394848B2, “Compounds that modulate intracellular calcium” (Calcimedica, Inc., priority 2008, dated 2013).

System: JR251 or RBL cells
Assay: Store-operated calcium entry, either JR251 or RBL cells, or both
Format: cell-based
Protocol: The day prior to performing the assay, RBL-2H3 cells are plated in 50 μL of complete medium in a 384 well plate. Cells are grown at 37° C./6% CO2 overnight and grow to 50-60% confluence by the next day. On the assay day, 1.5 μM Fluo-4-AM dye (Invitrogen) in complete medium is added and incubated for 1 hour at RT. Cells are washed twice in Ca^2+-free HBSS buffer and 35 μL Ca^2+-free HBSS buffer is added to each well. 10 μL of a test compound prepared in a Ca^2+-free HBSS solution at 4.5× of the desired concentration is added to a well and incubated for 5 minutes at RT. 10 μL of thapsigargin prepared in a Ca^2+-free HBSS solution at 5.5× of the desired concentration (5.5 uM) is added to each well and incubated for an additional 25 minutes. The initial baseline fluorescence signal is measured with a FLIPR^384 (Molecular Devices) plate reader. 5 μL of 12× calcium in HBSS (12 mM) is added and changes in cellular fluorescence are measured with the FLIPR^384 plate reader. In each well, the change in the fluorescent signal as a function of time due to calcium entry into the cell is determined by calculating the difference between the fluorescent signal measured 7 seconds after calcium addition and the initial baseline fluorescence signal at time zero (t=0). This parameter is designated Upslope. The IC50 value is calculated as the concentration at which 50% of the Upslope is inhibited.

| Compound | IC50 [µM] |
| --- | --- |
| O=C(O)c1c(-c2ccc(Cl)cc2)csc1NC(=O)C(F)Cc1cc(F)ccc1Cl (stereo not drawn) [2-(3-(2-chloro-5-fluorophenyl)-2-fluoropropanamido)-4-(4-chlorophenyl)thiophene-3-carboxylic acid] | < 10 |
| O=C(O)c1c(-c2ccc(Cl)cc2)csc1NC(=O)C(F)Cc1c(F)cccc1Cl (stereo not drawn) [2-(3-(2-chloro-6-fluorophenyl)-2-fluoropropanamido)-4-(4-chlorophenyl)thiophene-3-carboxylic acid] | < 10 |
| O=C(NCc1ccccc1)Nc1scc(-c2ccc(Br)cc2)c1C(=O)O [2-(3-benzylureido)-4-(4-bromophenyl)thiophene-3-carboxylic acid] | < 10 |
| O=C(NCc1ccccc1)Nc1scc(-c2ccc(Cl)cc2)c1C(=O)O [2-(3-benzylureido)-4-(4-chlorophenyl)thiophene-3-carboxylic acid] | < 10 |
| CC(C)S(=O)(=O)c1csc(C(=O)Nc2scc(-c3ccc(Cl)cc3)c2C(=O)O)c1Cl [2-(3-chloro-4-(isopropylsulfonyl)thiophene-2-carboxamido)-4-(4-chlorophenyl)thiophene-3-carboxylic acid] | < 10 |
| Cc1ccc(-c2csc(NC(=O)c3scc(S(=O)(=O)C(C)C)c3Cl)c2C(=O)O)cc1 [2-(3-chloro-4-(isopropylsulfonyl)thiophene-2-carboxamido)-4-p-tolylthiophene-3-carboxylic acid] | < 10 |
| CS(=O)(=O)c1csc(C(=O)Nc2scc(-c3ccc(Cl)cc3)c2C(=O)O)c1Cl [2-(3-chloro-4-(methylsulfonyl)thiophene-2-carboxamido)-4-(4-chlorophenyl)thiophene-3-carboxylic acid] | < 10 |
| Cc1ccc(-c2csc(NC(=O)c3scc(S(C)(=O)=O)c3Cl)c2C(=O)O)cc1 [2-(3-chloro-4-(methylsulfonyl)thiophene-2-carboxamido)-4-p-tolylthiophene-3-carboxylic acid] | < 10 |
| Cc1ccsc1C(=O)Nc1scc(-c2ccc(C(F)(F)F)cc2)c1C(=O)O [2-(3-methylthiophene-2-carboxamido)-4-(4-(trifluoromethyl)phenyl)thiophene-3-carboxylic acid] | < 10 |
| Cc1ccc(-c2csc(NC(=O)c3sccc3C)c2C(=O)O)cc1 [2-(3-methylthiophene-2-carboxamido)-4-p-tolylthiophene-3-carboxylic acid] | < 10 |
| Cc1ccc(-c2csc(NC(=O)c3cc4c(Cl)cc(Cl)cc4[nH]3)c2C(=O)O)cc1 [2-(4,6-dichloro-1H-indole-2-carboxamido)-4-p-tolylthiophene-3-carboxylic acid] | < 10 |
| Cc1ccc(-c2csc(NC(=O)c3scc(S(=O)(=O)c4ccc(Cl)cc4)c3C)c2C(=O)O)cc1 [2-(4-(4-chlorophenylsulfonyl)-3-methylthiophene-2-carboxamido)-4-p-tolylthiophene-3-carboxylic acid] | < 10 |
| O=C(Nc1scc(-c2cc3cccc(O)c3o2)c1C(=O)O)c1cc2c(F)cccc2o1 [2-(4-fluorobenzofuran-2-carboxamido)-4-(7-hydroxybenzofuran-2-yl)thiophene-3-carboxylic acid] | < 10 |
| Cc1ccc(-c2csc(NC(=O)c3nc4cc(Br)ccc4o3)c2C(=O)O)c(F)c1F [2-(5-bromobenzo[d]oxazole-2-carboxamido)-4-(2,3-difluoro-4-methylphenyl)thiophene-3-carboxylic acid] | < 10 |
| O=C(Nc1scc(-c2ccc(Cl)cc2)c1C(=O)O)c1nc2cc(Br)ccc2o1 [2-(5-bromobenzo[d]oxazole-2-carboxamido)-4-(4-chlorophenyl)thiophene-3-carboxylic acid] | < 10 |
| O=C(O)c1c(-c2ccc(Cl)cc2)csc1NC(=O)C1Cc2cc(Cl)ccc2O1 (stereo not drawn) [2-(5-chloro-2,3-dihydrobenzofuran-2-carboxamido)-4-(4-chlorophenyl)thiophene-3-carboxylic acid] | < 10 |
| COc1c(C(=O)Nc2scc(-c3ccc(Cl)cc3)c2C(=O)O)csc1Cl [2-(5-chloro-4-methoxythiophene-3-carboxamido)-4-(4-chlorophenyl)thiophene-3-carboxylic acid] | < 10 |
| Cc1ccc(-c2csc(NC(=O)c3nc4cc(Cl)ccc4o3)c2C(=O)O)c(F)c1F [2-(5-chlorobenzo[d]oxazole-2-carboxamido)-4-(2,3-difluoro-4-methylphenyl)thiophene-3-carboxylic acid] | < 10 |
| O=C(Nc1scc(-c2ccc(Cl)cc2)c1C(=O)O)c1nc2cc(Cl)ccc2o1 [2-(5-chlorobenzo[d]oxazole-2-carboxamido)-4-(4-chlorophenyl)thiophene-3-carboxylic acid] | < 10 |
| Cc1ccc(-c2csc(NC(=O)c3ccc(-c4ccccc4)s3)c2C(=O)O)cc1 [2-(5-phenylthiophene-2-carboxamido)-4-p-tolylthiophene-3-carboxylic acid] | < 10 |
| Cc1ccc(-c2csc(NC(=O)c3nc4ccc(Br)cc4o3)c2C(=O)O)c(F)c1F [2-(6-bromobenzo[d]oxazole-2-carboxamido)-4-(2,3-difluoro-4-methylphenyl)thiophene-3-carboxylic acid] | < 10 |
| Cc1ccc(-c2csc(NC(=O)c3nc4cccc(Br)c4o3)c2C(=O)O)c(F)c1F [2-(7-bromobenzo[d]oxazole-2-carboxamido)-4-(2,3-difluoro-4-methylphenyl)thiophene-3-carboxylic acid] | < 10 |
| O=C(Nc1scc(-c2ccc(Cl)cc2)c1C(=O)O)c1nc2cccc(Br)c2o1 [2-(7-bromobenzo[d]oxazole-2-carboxamido)-4-(4-chlorophenyl) thiophene-3-carboxylic acid] | < 10 |
| Cc1ccc(-c2csc(NC(=O)c3nc4cccc(C#N)c4o3)c2C(=O)O)c(F)c1F [2-(7-cyanobenzo[d]oxazole-2-carboxamido)-4-(2,3-difluoro-4-methylphenyl)thiophene-3-carboxylic acid] | < 10 |
| O=C(Nc1scc(-c2cc3cccc(O)c3o2)c1C(=O)O)c1nc2cccc(F)c2o1 [2-(7-fluorobenzo[d]oxazole-2-carboxamido)-4-(7-hydroxybenzofuran-2-yl)thiophene-3-carboxylic acid] | < 10 |
| O=C(Nc1scc(-c2cc3cccc(O)c3o2)c1C(=O)O)c1cc2cccc(O)c2o1 [2-(7-hydroxybenzofuran-2-carboxamido)-4-(7-hydroxybenzofuran-2-yl)thiophene-3-carboxylic acid] | < 10 |
| O=C(Nc1scc(-c2ccc(Cl)cc2)c1C(=O)O)OCc1ccccc1Cl [2-((2-chlorobenzyloxy)carbonylamino)-4-(4-chlorophenyl)thiophene-3-carboxylic acid] | < 10 |
| Cc1ccc(-c2csc(NC(=O)c3ccc4snnc4c3)c2C(=O)O)c(F)c1F [2-(benzo[d][1,2,3]thiadiazole-5-carboxamido)-4-(2,3-difluoro-4-methylphenyl)thiophene-3-carboxylic acid] | < 10 |
| O=C(Nc1scc(-c2ccc(Cl)c(Cl)c2)c1C(=O)O)c1ccc2snnc2c1 [2-(benzo[d][1,2,3]thiadiazole-5-carboxamido)-4-(3,4-dichlorophenyl)thiophene-3-carboxylic acid] | < 10 |
| O=C(Nc1scc(-c2ccc(Br)cc2)c1C(=O)O)c1ccc2snnc2c1 [2-(benzo[d][1,2,3]thiadiazole-5-carboxamido)-4-(4-bromophenyl)thiophene-3-carboxylic acid] | < 10 |
